Source: PubChem BioAssay (NCI)
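A five-concentration, 48-hour dose response in 96-well plates underlies each endpoint, interpolated linearly between surrounding concentrations. Abbreviation: GI50, concentration required for 50% inhibition of growth. TGI is the concentration that stops growth completely.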

Legend:
Test in all cases: NCI-60 cell line screen, 48 h
MDA-MB-468 breast = system: MDA-MB-468 breast
LOX IMVI melanoma = system: LOX IMVI melanoma
OVCAR-4 ovarian = system: OVCAR-4 ovarian
BT-549 breast = system: BT-549 breast
DU-145 prostate = system: DU-145 prostate
SK-OV-3 ovarian = system: SK-OV-3 ovarian
RPMI-8226 leukemia = system: RPMI-8226 leukemia
786-0 renal = system: 786-0 renal
HT29 colon = system: HT29 colon
HOP-92 NSCLC = system: HOP-92 NSCLC
M14 melanoma = system: M14 melanoma
NCI-H23 lung = system: NCI-H23 lung
T-47D breast = system: T-47D breast
EKVX NSCLC = system: EKVX NSCLC
RXF 393 renal = system: RXF 393 renal
PC-3 prostate = system: PC-3 prostate
U251 CNS = system: U251 CNS
UACC-257 melanoma = system: UACC-257 melanoma
MOLT-4 leukemia = system: MOLT-4 leukemia
HS 578T breast = system: HS 578T breast
MDA-MB-435 = system: MDA-MB-435
UO-31 renal = system: UO-31 renal
A549 NSCLC = system: A549 NSCLC
HOP-62 NSCLC = system: HOP-62 NSCLC
SK-MEL-2 melanoma = system: SK-MEL-2 melanoma
SK-MEL-5 melanoma = system: SK-MEL-5 melanoma
HCC-2998 colon = system: HCC-2998 colon
K-562 leukemia = system: K-562 leukemia
SNB-19 CNS = system: SNB-19 CNS

`CC(=O)c1ccc(Nc2nc(SC(C)C)nc(-c3ccccc3)c2C#N)cc1` gave a GI50 (MDA-MB-468 breast) of 5.08 µM, a TGI (MDA-MB-468 breast) of 50.2 µM and a GI50 (LOX IMVI melanoma) of 3.51 µM. For the same compound, the TGI (LOX IMVI melanoma) was > 100 µM, the GI50 (OVCAR-4 ovarian) was 5.07 µM and the TGI (OVCAR-4 ovarian) was > 100 µM. The GI50 (BT-549 breast) was 24.8 µM, the TGI (BT-549 breast) was > 100 µM and the GI50 (DU-145 prostate) was 17.6 µM. For the same compound, the TGI (DU-145 prostate) was > 100 µM, the GI50 (SK-OV-3 ovarian) was 5.02 µM and the TGI (SK-OV-3 ovarian) was 38.9 µM. The GI50 (RPMI-8226 leukemia) was > 100 µM, the TGI (RPMI-8226 leukemia) was > 100 µM and the GI50 (786-0 renal) was 2.07 µM. For the same compound, the TGI (786-0 renal) was 4.81 µM, the GI50 (HT29 colon) was 3.81 µM and the TGI (HT29 colon) was > 100 µM. It also gave a GI50 (HOP-92 NSCLC) of 1.91 µM, a TGI (HOP-92 NSCLC) of 7.86 µM and a GI50 (M14 melanoma) of 21.9 µM. For the same compound, the TGI (M14 melanoma) was > 100 µM, the GI50 (NCI-H23 lung) was 2.46 µM and the TGI (NCI-H23 lung) was 11.2 µM. For the same compound, the GI50 (T-47D breast) was 81.6 µM, the TGI (T-47D breast) was > 100 µM and the GI50 (EKVX NSCLC) was 4.71 µM. The TGI (EKVX NSCLC) was > 100 µM, the GI50 (RXF 393 renal) was 2.08 µM and the TGI (RXF 393 renal) was 7.48 µM. The GI50 (PC-3 prostate) was 8.98 µM, the TGI (PC-3 prostate) was > 100 µM and the GI50 (U251 CNS) was 1.32 µM. For the same compound, the TGI (U251 CNS) was 4.26 µM, the GI50 (UACC-257 melanoma) was > 100 µM and the TGI (UACC-257 melanoma) was > 100 µM. For the same compound, the GI50 (MOLT-4 leukemia) was > 100 µM, the TGI (MOLT-4 leukemia) was > 100 µM and the GI50 (HS 578T breast) was 3.09 µM. For the same compound, the TGI (HS 578T breast) was 23.8 µM, the GI50 (MDA-MB-435) was 5.06 µM and the TGI (MDA-MB-435) was > 100 µM. For the same compound, the GI50 (UO-31 renal) was 2.03 µM, the TGI (UO-31 renal) was 4.94 µM and the GI50 (A549 NSCLC) was 72.9 µM. The TGI (A549 NSCLC) was > 100 µM, the GI50 (HOP-62 NSCLC) was 2.13 µM and the TGI (HOP-62 NSCLC) was 5.38 µM. For the same compound, the GI50 (SK-MEL-2 melanoma) was > 100 µM, the TGI (SK-MEL-2 melanoma) was > 100 µM and the GI50 (SK-MEL-5 melanoma) was 5.03 µM. For the same compound, the TGI (SK-MEL-5 melanoma) was 20.3 µM, the GI50 (HCC-2998 colon) was 15.8 µM and the TGI (HCC-2998 colon) was > 100 µM. For the same compound, the GI50 (K-562 leukemia) was 9.17 µM, the TGI (K-562 leukemia) was > 100 µM and the GI50 (SNB-19 CNS) was 2.05 µM. The TGI (SNB-19 CNS) was 4.63 µM.
